Measured values published in patent US20250375456A1, “AGENT FOR PREVENTING OR TREATING RESPIRATORY DISEASE” (Nippon Chemiphar Co., Ltd., priority 2021, published 2025).

Columns and labels:
Assay type in all cases: in vivo, guinea pig
[1] = system: cigarette smoke-exposed guinea pigs; assay: Measurement of citric acid-induced cough reflex in cigarette smoke-exposed model; details: for mean number of cough reflexes: Day 20 or 21, 2 hours after administration, 0.1 mol/L citric acid, 15 minutes
Source text: (§1) Male Hartley guinea pigs (manufactured by Japan SLC, Inc., Slc: Hartley, SPF) were used in the test. The guinea pigs were purchased at 5 weeks old. The weights at the time of the purchase were about 300 to 350 g. After arrival, the guinea pigs were provided with an acclimation period of 9 days, including the day of receipt. During the above period, the clinical symptoms of the animals were observed once a day. In addition, on the last day of the acclimation period, the animals were weighed and the health status was measured. It was confirmed that there were no abnormal clinical signs or […] in any of the animals. Body weights on the last day of the acclimation (that is, at the beginning of exposure to cigarette smoke) were about 390 to 450 g.
(§2) Experimental animals were prepared with reference to Non Patent Literature 2. Specifically, guinea pigs exposed to cigarette smoke using a smoking exposure system (INH06-CIG01A, INH06-CIG02, M.I.P.S. Inc.) were used in the experiment. Each guinea pig was placed in an exposure holder (one per cage), and the holder was secured in the exposure chamber. The animals were exposed to the smoke of 30 cigarette per day, 5 days a week, for 4 weeks, the smoke being generated by a mainstream smoke generator. In the fourth week, the exposure was for 4 days (smoking period was from […]). As for the cigarettes, Peace (no filter, tar: 28 mg, nicotine: 2.3 mg, Japan Tobacco Inc., Peace is a registered trademark of Japan Tobacco Inc.) was used.
(§3) The placebo and each drug were administered by forced oral administration into the stomach using a disposable syringe equipped with a gastric catheter. As for the administration frequency, repetitive administration was performed once a day for 25 days from Day 1 to Day 25. The administration time was 1 hour (±5 minutes) before the cigarette smoke-exposure. The dose was 5 mL/kg. The actual amount of each drug administered to each guinea pig was calculated based on the most recent weight.
Measurements were performed 1 day or 2 days after the last cigarette smoke exposure during Week 3 (Day 20 or Day 21).
The measurements were performed 2 hours after the administration of the placebo or various drugs.
The guinea pigs were placed in the inhalation chamber of the respiratory function measurement system (Pulmos-I, M.I.P.S. Co.). Cough reflex was induced by inhaling citric acid (lot no. M8K7523, manufactured by NACALAI TESQUE, INC.) for 3 minutes from the front side of the chamber using an ultrasonic nebulizer. […] The presence or absence of a cough reflex was determined from the sound during the cough reflex, the movement of the animal, and the respiratory function. Before the measurement on the day of the administration, the animals were placed in the chamber for 15 minutes or longer to acclimatize to the experimental environment. Note that the respiratory function (respiratory rate (RR), tidal volume (TV), peak expiratory flow (PEF), and minute volume (MV)) was measured immediately before the citric acid inhalation. The respiratory function was measured by the body side sensor of the respiratory function measurement system.

[2] = system: cigarette smoke-exposed guinea pigs; assay: Measurement of respiratory function (double flow plethysmography) in cigarette smoke-exposed model
Source text: as §1, §2
Unless otherwise specified, various evaluations were performed on the day after the last cigarette smoke-exposure in the second week (Day 13) and the day after the last cigarette smoke-exposure (Day 26).
The solvent of Compound A was used as the placebo of the control group.
as §3
Respiratory function in conscious guinea pigs was measured by double flow plethysmography using a respiratory function measurement system (Pulmos-I, M.I.P.S Inc.). The measurement parameters were specific airway resistance (sRaw), tidal volume (TV), respiratory rate (RR), minute volume (MV), and peak expiratory flow (PEF). The average value of the measurement values obtained with 100 breaths was considered as the measurement value for each measurement day.

[3] = Measurement of weights in cigarette smoke-exposed model; details: Day 1 to Day 26; Compound A 3, 10, 30 mg/kg, gefapixant 10 mg/kg, oral once a day
Source text: as §1
Experimental animals were prepared with reference to Non Patent Literature 2. Specifically, guinea pigs exposed to cigarette smoke using a smoking exposure system (INH06-CIG01A, INH06-CIG02, M.I.P.S. Inc.) were used in the experiment. […]
The placebo and each drug were administered by forced oral administration into the stomach using a disposable syringe equipped with a gastric catheter. […] The actual amount of each drug administered to each guinea pig was calculated based on the most recent weight.
The weights were measured with an electronic balance (MSA4202S, Sartorius Japan K.K.) before the research operation on Days 1, 8, 15, 22, and 26.

[4] = system: cigarette smoke-exposed guinea pigs; assay: Number of cells in bronchoalveolar lavage fluid (BALF) in cigarette smoke-exposed model
Source text: as §1, §2, §3
The measurement was performed after the day after the last cigarette smoke exposure (Day 26).
After sacrificing the guinea pigs by bleeding under anesthesia, bronchoalveolar lavage fluid (BALF) was collected according to the following operating procedure.
(1) After ligating the left main bronchus with a thread, a cannula was inserted into the trachea and fixed.
(2) 5 mL of saline was injected into the right lung through the cannula, and the lavage fluid was collected by gentle suctioning. BALF was collected by repeating this procedure twice (a total of 10 mL).
The pellet was suspended in 1 mL of saline, and the number of WBCs were counted using an automated hematology analyzer with a BALF analysis area (XT-2000iV, Sysmex Corporation). The counting was performed by adjusting the smear preparation. The smear preparation was performed by centrifuging the cell suspension again and suspending the obtained pellet in 75% FBS (fetal bovine serum and saline). After drying, the smear preparation was Wright-Giemsa stained.
The percentages of neutrophils, macrophages, eosinophil, and lymphocytes with respect to total WBCs were obtained, and the numbers of the cells per 1 μL were calculated.

[5] = Day 13, 10 mg/kg oral once a day
[6] = Day 26, 10 mg/kg oral once a day
[7] = Day 26, high-dose group 30 mg/kg oral
[8] = Day 26, low-dose group 3 mg/kg oral
[9] = Day 26, medium-dose group 10 mg/kg oral

## COc1cc(C(C)C)c(Oc2cnc(N)nc2N)cc1S(N)(=O)=O [Gefapixant, reference compound]
[1]; 10 mg/kg oral
  number of cough reflexes compared to the control (placebo) group: no significant difference
  mean number of cough reflexes: 4.5
[2]; 10 mg/kg oral
  effect on the respiratory function: did not have a significant effect
[2]; [5]
  specific airway resistance (sRaw): 1.675 cmH2O·sec
[2]; Day 13 and Day 26, 10 mg/kg oral
  sRaw compared to the control (placebo) group: no significant difference
[2]; [6]
  specific airway resistance (sRaw): 2.066 cmH2O·sec
[3]
  weight changes compared to the control (placebo) group: comparable
[4]; 10 mg/kg oral
  effect on the changes in the number of cells in BALF: did not have an effect
[4]; Day 26, 10 mg/kg oral
  mean number of macrophages in BALF: 24.4 ×10^2 cells/μL
  mean number of total WBCs in BALF: 40.0 ×10^2 cells/μL
  number of macrophages compared to the control (placebo) group: no significant different
  total number of WBCs compared to the control (placebo) group: no significant different

## O=C1CC(=O)N(c2ccc(NC(=O)c3ccccc3I)cc2)c2ccc3ccccc3c2N1 [Compound B48, 5-[4-(2-iodobenzoylamino)phenyl]-1H-naphtho[1,2-b][1,4]diazepine-2,4(3H,5H)-dione]
[1]; 10 mg/kg oral
  number of cough reflexes compared to the control (placebo) group: no significant difference
  mean number of cough reflexes: 6.9
[1]; high-dose group 30 mg/kg oral
  number of cough reflexes compared to the control (placebo) group: tendency of suppressing the cough reflex
  mean number of cough reflexes: 3.6
[1]; low-dose group 3 mg/kg oral
  number of cough reflexes compared to the control (placebo) group: no significant difference
  mean number of cough reflexes: 6.0
[2]; 3, 10, 30 mg/kg oral
  minute volume (MV), dose dependence: tendency of increasing in a dose-dependent manner
  peak expiratory flow (PEF), dose dependence: tendency of increasing in a dose-dependent manner
  tidal volume (TV), dose dependence: tendency of increasing in a dose-dependent manner
[2]; 3, 10, 30 mg/kg oral, Day 13 and Day 26
  sRaw, dose dependence: decreased in a dose-dependent manner
[2]; [5]
  specific airway resistance (sRaw): 1.711 cmH2O·sec
[2]; Day 13, high-dose group 30 mg/kg oral once a day
  specific airway resistance (sRaw): 1.556 cmH2O·sec
[2]; Day 13, high-dose group 30 mg/kg oral, P<0.05
  sRaw compared to the control (placebo) group: significant decrease
[2]; Day 13, low-dose group 3 mg/kg oral once a day
  specific airway resistance (sRaw): 1.755 cmH2O·sec
[2]; [6]
  specific airway resistance (sRaw): 2.017 cmH2O·sec
[2]; Day 26, 3, 10, 30 mg/kg oral
  respiratory rate (RR), dose dependence: tendency of decreasing in a dose-dependent manner
[2]; Day 26, high-dose group 30 mg/kg oral once a day
  specific airway resistance (sRaw): 1.994 cmH2O·sec
[2]; Day 26, low-dose group 3 mg/kg oral once a day
  specific airway resistance (sRaw): 2.105 cmH2O·sec
[2]; all Compound A groups (3, 10, 30 mg/kg)
  PEF compared to the control (placebo) group: higher
[2]; medium-dose group (10 mg/kg) and high-dose group (30 mg/kg)
  MV compared to the control (placebo) group: higher
[3]
  weight changes compared to the control (placebo) group: comparable
[4]; Day 26, 10 mg/kg oral
  mean number of macrophages in BALF: 20.2 ×10^2 cells/μL
  mean number of total WBCs in BALF: 30.1 ×10^2 cells/μL
[4]; Day 26, 3, 10, 30 mg/kg oral
  macrophages, dose dependence: smaller than that in the control (placebo) group in a dose-dependent manner
  neutrophils, dose dependence: tendency of decreasing in a dose-dependent manner
  number of eosinophils compared to the control (placebo) group: no significant difference
  number of lymphocytes compared to the control (placebo) group: no significant difference
  total WBCs, dose dependence: smaller than that in the control (placebo) group in a dose-dependent manner
[4]; [7]
  mean number of eosinophils in BALF: 5.6 ×10^2 cells/μL
  mean number of lymphocytes in BALF: 1.0 ×10^2 cells/μL
  mean number of macrophages in BALF: 12.0 ×10^2 cells/μL
  mean number of neutrophils in BALF: 2.3 ×10^2 cells/μL
  mean number of total WBCs in BALF: 20.9 ×10^2 cells/μL
  number of macrophages compared to the control (placebo) group: significantly suppressed
  total number of WBCs compared to the control (placebo) group: significantly suppressed
[4]; [8]
  mean number of eosinophils in BALF: 4.8 ×10^2 cells/μL
  mean number of lymphocytes in BALF: 1.1 ×10^2 cells/μL
  mean number of macrophages in BALF: 25.0 ×10^2 cells/μL
  mean number of neutrophils in BALF: 3.1 ×10^2 cells/μL
  mean number of total WBCs in BALF: 33.9 ×10^2 cells/μL
[4]; [9]
  mean number of eosinophils in BALF: 6.1 ×10^2 cells/μL
  mean number of lymphocytes in BALF: 1.2 ×10^2 cells/μL
  mean number of neutrophils in BALF: 2.5 ×10^2 cells/μL
